# From patent US20070003987A1, “Screening method for substance binding to merozoite surface protein-1/42” (priority 2003, published 2007)
# Tests used:
# [1] = molecular target: T1, MSP119 from P. falciparum (Plasmodium falciparum, UniProt P04933, S1528A); assay: binding of suramin by fluorimetry
# T1 construct: contained the 96 amino acid MSP119 fragment, preceded by a single His residue; N-terminal leader […]; (His6 + Factor Xa site); made in house; host or cells: Pichia pastoris (vector pPIC9K)
# Description: Plasmodium falciparum MSP119 (Swiss-Prot 04933) was expressed from a synthetic gene optimised for Pichia pastoris expression (European Patent No. EP1180120). This construct, inserted at the SnaBI site of vector pPIC9K (Invitrogen), contained the N-terminal leader sequence YHHHHHHIEGRH preceding the MSP119 sequence. A point mutation (Ser3 to Ala) was also introduced to eliminate N-glycosylation at Asn1. Following purification of MSP119 as described previously (Morgan et al, 1999 J. Mol. Biol. 289, 113-122), the N-terminal tag was cleaved with Factor Xa (New England Biolabs) and MSP119 was purified by gel filtration (Superdex 200). The fmal product contained the 96 amino acid MSP119 fragment, preceded by a single His residue.
# (§1) The intrinsic fluorescence of suramin was used to determine its capacity to bind to the various MSP1-derived proteins. The fluorescence was measured using a Perkin Elmer LS-3B or a Spex Fluoro Max 2 fluorimeter. Suramin was excited at a wavelength of 315 or 330 nm with 2.5 nm resolution, the emission spectra were measured at wavelengths ranging from 350-450 nm. Suramin and the MSP1 proteins were diluted in 20 mM NaH2PO4, 150 mM NaCl at pH 7.2 and analysed at 10 or 20° C. Titrations were performed by adding aliquots of the suramin solution to the MSP1 solution. […] The Kd for the suramin-MSP1 binding was determined from three independent experiments.
# [2] = molecular target: T2, P. vivax MSP142 (Plasmodium vivax, UniProt Q02569, A1444G/T1362K/T1451N); assay: isothermal titration calorimetry; format: binding
# T2 sequence (Q02569 1325-1704 T1362K/A1444G/T1451N): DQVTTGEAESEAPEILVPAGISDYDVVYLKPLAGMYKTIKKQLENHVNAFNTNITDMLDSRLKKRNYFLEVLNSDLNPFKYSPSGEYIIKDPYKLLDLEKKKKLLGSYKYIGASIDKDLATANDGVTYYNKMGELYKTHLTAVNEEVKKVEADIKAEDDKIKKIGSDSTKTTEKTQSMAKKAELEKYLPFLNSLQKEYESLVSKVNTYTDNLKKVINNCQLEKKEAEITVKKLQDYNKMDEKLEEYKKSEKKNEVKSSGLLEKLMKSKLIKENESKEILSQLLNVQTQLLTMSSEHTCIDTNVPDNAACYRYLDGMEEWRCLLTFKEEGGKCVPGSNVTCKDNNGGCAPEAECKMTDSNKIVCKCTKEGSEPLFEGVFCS
# Description: The MSP142 protein from P. vivax was cloned into plasmid jmp28, a modified pET-28 vector that encodes an N-terminal peptide MHHHHHHIEGRWIL immediately upstream of the inserted sequence. P. vivax (Belem strain) DNA was used as a template for PCR based cloning. The sequence of the expressed protein (following the vector encoded N-terminal peptide) corresponded to residues Asp 1325 to Ser 1704, Accession number A39401.
# The protein was expressed in BL21(DE3)pLysS cells by induction of a culture at an OD600 of 0.6-0.8 with IPTG at a final concentration of 1 mM. The cells were induced for 3 h at 37° C. and then harvested by centrifugation. The cells were lysed using the Bugbuster protein extraction reagent (Novagen), after centrifugation of the cell lysate, the pellet containing the MSP142 was dissolved in 6M Guanidine-HCl, 100 mM Na2HPO4, 10 mM Tris-HCl, pH 8.0. This was applied to a Ni-NTA column, washed with 10 column volumes of the loading buffer, followed by 6 column volumes of 8 M Urea, 100 mM Na2HPO4, 10 mM Tris-HCl, at pH 7.0, and 6 column volumes at pH 6.1. The protein was eluted in 3 column volumes 8 M Urea, 100 mM Na2HPO4, 10 mM Tris-HCl, pH 4.3. […]
# In addition to the fluorimetry, isothermal titration calorimetry (ITC) was performed using a Microcal omega VP-ITC (MicroCal Inc., Northampton, Mass.). […] The heat of dilution of suramin into buffer was determined in control experiments. […]
# [3] = test system: P. vivax MSP133; assay: binding of suramin by fluorimetry
# Experimental: P. vivax MSP133 was expressed using the P. vivax MSP142 clone, above, as a template for PCR, followed by ligation of the product into vector pET30Xa/LIC. The sequence runs from Asp 1325 to Ser 1618 (Accession number A39401) following the N-terminal purification tag. The vector was used to transform BL21(DE3)pLysS cells. For expression, a culture of the transformed cells was induced at an OD600 of 0.6-0.8 at 37° C. with 1 mM IPTG for 3 h. The cells were harvested by centrifugation and the cell pellet lysed using the Bugbuster protein extraction reagent (Novagen). The cell lysate was cleared by centrifugation and the supernatant loaded directly onto a Ni-NTA column. […]
# as §1, with “C.” for “C. Titrations were performed by adding aliquots of the suramin solution to the MSP1 solution.”
smiles,measurement,setting,value
Cc1ccc(C(=O)Nc2ccc(S(=O)(=O)O)c3cc(S(=O)(=O)O)cc(S(=O)(=O)O)c23)cc1NC(=O)c1cccc(NC(=O)Nc2cccc(C(=O)Nc3cc(C(=O)Nc4ccc(S(=O)(=O)O)c5cc(S(=O)(=O)O)cc(S(=O)(=O)O)c45)ccc3C)c2)c1 [suramin],enhancement of suramin fluorescence on addition to MSP119,[1],No fluorescence enhancement
same,Kd,[2],300 ± 100 nM
same,AH value,"[2]; ITC, 25° C.",11 ± 1 kcal/mol
same,enhancement of intrinsic suramin fluorescence on binding,[3],large binding-induced enhancements
